For assay [1], the system named is Tic-FX cells. In words: Culturing of iPS cells in the presence of low molecular weight compounds (cell count). As to conditions: 40 ng/mL FGF2, five days. It counts as cell-based, human. The protocol: Media were produced by adding 1 μM of Y-27632, 20 ng/mL of LIF and 40 ng/mL of FGF2 to the basal medium, and media were produced by adding the following inhibitors to the media at concentrations of 1 μM (PD0325901), 0.3 μM (CHIR99021), 0.5 μM (SB590885), 1 μM (WH-4-023), 10 μM (SP600125), 10 μM (SB203580), 5 μM (Go6983), 5 μM (GF109203X), 2 μM (Porsomorphin) or 400 ng/mL (Noggin) each. The Tic-FX cells were proliferated in suspension culture in ultra-low attachment 6-well plates (manufactured by Coming Incorporated) containing the media in the presence of 10% CO2 at 37° C. The cells were cultured for five days, and the cells were counted. In FIG. 6, “−” indicates the results using the medium to which no inhibitor was added.

The subject of assay [2] is Tic-FX cells. Description: Real-time PCR of pluripotency markers in cells proliferated with inhibitors. As to conditions: 40 ng/mL FGF2, versus control Tic-FX. The format is cell-based, human. The text has this:
Cells cultured in the basal medium were used as the control (indicated by Tic-FX in FIG. 7A and FIG. 7B).
In general terms: Quantitative PCR measures a nucleic acid by following its amplification.

The test system of assay [3] is Tic-FX cells. Description: Influence on proliferation of iPS cells in the presence of ROCK inhibitor (suspension culture). It counts as cell-based, human. As to conditions: Y-27632 at 1 μM, 3 μM or 10 μM in hESF-FX medium. The protocol:
In the following Examples, a medium obtained by mixing the following components in the amounts shown in Table 1 which had been sterilized with a […] into mESF Basal Medium (manufactured by Wako Pure Chemical Industries, Ltd., 136-17805) was used as hESF-FX medium. As the iPS cells, Tic-FX cells [a cell line obtained by conditioning iPS cells, line Tic (JCRB1331) to a feeder-free xeno-free culture (FX)] were used. A ROCK inhibitor (Y-27632) was dissolved in the hESF-FX medium at 1 μM, 3 μM or 10μM. The media each in an amount of 3 mL were put into an ultra-low attachment 6-well plate (manufactured by Corning Incorporated), and the Tic-FX cells were cultured in the presence of 10% CO2 at 37° C. (suspension culture). The plate was observed after one day, three days and five days of cultivation. […] The numbers of the cells per well and the viability of the cells were measured after five days of cultivation.

Assay [4] has as its system Tic-FX cells. Description: Real-time PCR of undifferentiation, naive type-specific and differentiation marker genes in cells of Example 1. It counts as cell-based, human. As to conditions: five days, relative to GAPDH; for expression level of NCAM / expression level of naive type-specific STELLA gene: versus control; for expression level of NANOG / expression level of OCT3/4: versus control Tic-FX. As to the method:
The expression of marker genes was examined by real-time PCR. Real-time PCR was conducted using a real-time PCR system (7300 manufactured by Applied Biosystems) by the following reaction procedures using the following primers. 95° C. 30 seconds→[(95° C. 5 seconds→60° C. 31 seconds)×40 cycles]→Melting Cycle Using the cells cultured in Example 1, the expression levels of NANOG and OCT3/4, which are undifferentiation marker genes, […], which is a naive type-specific marker gene, and NCAM, which is a neuronal differentiation-specific marker gene, in the cells after five days of cultivation were examined by the real-time PCR. In FIG. 3A to FIG. 3D, the vertical axes each indicate the ratio of the expression level of the target gene of the sample to that of GAPDH (glyceraldehyde-3-phosphate dehydrogenase), which was used as the internal standard. Specifically, the values in the graphs each mean the relative value (unit is fold) of the DNA amount before the amplification determined from the difference between the Cp value of GAPDH and the Cp value of the target gene. Here, the internal standard is a gene whose expression level is always constant independently of the state of the cells. The Cp value is the number of cycles which are necessary to amplify DNA to the amount that can be detected with a measurement device when the DNA is amplified by PCR reaction (theoretically, the DNA amount doubles in one cycle).

Assay [5] relates to human iPS cells. As to conditions: added to the medium; cells dispersed into single cells or clusters of several to several dozen cells; cited from earlier work.
Setting [6] is: 0.3 μM added to medium with 1 μM Y-27632, 20 ng/mL LIF.
The mark [7] stands for this setting: 400 ng/mL added to medium with 1 μM Y-27632, 20 ng/mL LIF.

Regarding `Cc1c[nH]c(-c2cnc(NCCNc3ccc(C#N)cn3)nc2-c2ccc(Cl)cc2Cl)n1` [CHIR99021, 6-{2-[4-(2,4-dichloro-phenyl)-5-(4-methyl-1H-imidazol-2-yl)-pyrimidin-2-ylamino]-ethylamino}-nicotinonitrile], the “growth rate of the cells” value in assay [1] (setting [6]) is recorded as “high”. Also, in assay [2] (setting [6]), the “expression level of NANOG” value is “increased” and the “expression level of OCT3/4” value is “increased”.

`C[C@@H](N)[C@H]1CC[C@H](C(=O)Nc2ccncc2)CC1.Cl.Cl` [Y-27632, (+)-(R)-trans-4-(1-aminoethyl)-N-(4-pyridyl)cyclohexanecarboxamide dihydrochloride]: in assay [3] (after five days of cultivation), the “number of the cells per well” value is “increased as the concentration of the ROCK inhibitor was higher” and the “viability of the cells” value is listed as “increased as the concentration of the ROCK inhibitor was higher”. Besides, the “number of the cells (micrographs, FIG. 1A and FIG. 1B)” value in assay [3] (observed after one, three and five days) is given as “increased as the concentration of the ROCK inhibitor was higher”. In assay [4] (1 μM), the “expression level of NCAM” value is reported as “almost the same as that of the control”, the “expression level of naive type-specific STELLA gene” value is recorded as “higher than that of the control”, the “expression level of NANOG” value is on record as “higher than those of the control” and the “expression level of OCT3/4” value is “higher than those of the control”. In assay [4] (3 μM), the “expression level of NCAM” value is reported as “higher than that of the control”, the “expression level of naive type-specific STELLA gene” value was “higher than that of the control”, the “expression level of NANOG” value was “higher than those of the control” and the “expression level of OCT3/4” value is “higher than those of the control”. Moreover, in assay [4] (10 μM), the “expression level of NCAM” value is reported as “higher than that of the control”, the “expression level of naive type-specific STELLA gene” value was “slightly higher than that of the control”, the “expression level of NANOG” value was “lower than those of the control” and the “expression level of OCT3/4” value was “lower than those of the control”. For the same molecule, in assay [5], the “apoptosis of human iPS cells” value is “suppresses the apoptosis” and the intercellular adhesion result is on record as “promotes the intercellular adhesion”.

B1: Noggin: Noggin, Recombinant Human, manufactured by R&D Systems; endogenous protein that inhibits BMP (protein, UniProt Q13253 28-232, looked up)
Noggin: QHYLHIRPAPSDNLPLVDLIEHPDPIFDPKEKDLNETLLRSLLGGHYDPGFMATSPPEDRPGGGGGAAGGAEDLAELDQLLRQRPSGAMPSEIKGLEFSEGLAQGKKQRLSKKLRRKLQMWLWSQTFCPVLYAWNDLGSRFWPRYVKVGSCFSKRSCSVPEGMVCKPSKSVHLTVLRWRCQRRGGQRCGWIPIQYPIISECKCSC
In the case of B1, the “growth rate of the cells” value in assay [1] (setting [7]) is reported as “high”. In assay [2] (setting [7]), the “expression level of NANOG” value is given as “increased” and the “expression level of OCT3/4” value is “increased”.

Source of the values: patent publication US20190127707A1, “MEDIUM FOR CULTURING NAIVE PLURIPOTENT STEM CELLS AND METHOD FOR CULTURING PLURIPOTENT STEM CELLS” (KYOWA HAKKO BIO CO., LTD., priority 2016, published 2019).
